Measurements reported in PubChem BioAssay (NCI).
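Protocol summary: plate cells (96-well), add compound at 5 concentrations, incubate 48 h, interpolate endpoints linearly. At the GI50, growth is halved. TGI marks complete inhibition of growth.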

Columns and labels:
Experiment in all cases: growth of human tumour cells (NCI), 48 h
[1] = test system: 786-0 renal
[2] = test system: A498 renal
[3] = test system: A549 NSCLC
[4] = test system: ACHN renal
[5] = test system: BT-549 breast
[6] = test system: CAKI-1 renal
[7] = test system: CCRF-CEM leukemia
[8] = test system: COLO 205 colon
[9] = test system: DU-145 prostate
[10] = test system: EKVX NSCLC
[11] = test system: HCC-2998 colon
[12] = test system: HCT-116 colon
[13] = test system: HCT-15 colon
[14] = test system: HL-60(TB) leukemia
[15] = test system: HOP-62 NSCLC
[16] = test system: HOP-92 NSCLC
[17] = test system: HS 578T breast
[18] = test system: HT29 colon
[19] = test system: IGROV1 ovarian
[20] = test system: K-562 leukemia
[21] = test system: KM12 colon
[22] = test system: LOX IMVI melanoma
[23] = test system: M14 melanoma
[24] = test system: MALME-3M melanoma
[25] = test system: MDA-MB-231 breast
[26] = test system: MDA-MB-435
[27] = test system: MOLT-4 leukemia
[28] = test system: NCI-H226 lung
[29] = test system: NCI-H23 lung
[30] = test system: NCI-H460 lung
[31] = test system: NCI-H522 lung
[32] = test system: NCI/ADR-RES ovarian
[33] = test system: OVCAR-3 ovarian
[34] = test system: OVCAR-4 ovarian
[35] = test system: OVCAR-5 ovarian
[36] = test system: OVCAR-8 ovarian
[37] = test system: PC-3 prostate
[38] = test system: RPMI-8226 leukemia
[39] = test system: RXF 393 renal
[40] = test system: SF-268 CNS
[41] = test system: SF-295 CNS
[42] = test system: SF-539 CNS
[43] = test system: SK-MEL-2 melanoma
[44] = test system: SK-MEL-28 melanoma
[45] = test system: SK-MEL-5 melanoma
[46] = test system: SK-OV-3 ovarian
[47] = test system: SN12C renal
[48] = test system: SNB-19 CNS
[49] = test system: SNB-75 CNS
[50] = test system: SW-620 colon
[51] = test system: TK-10 renal
[52] = test system: U251 CNS
[53] = test system: UACC-257 melanoma
[54] = test system: UACC-62 melanoma
[55] = test system: UO-31 renal
[56] = test system: MCF7 breast
[57] = test system: SR leukemia
[58] = test system: T-47D breast

## C=C1CC2(OC1=O)C(=O)N(C)c1ccc(I)cc12 (stereo not drawn)
[1]
  GI50: 1.65 µM
  TGI: 3.18 µM
[2]
  GI50: 2.5 µM
  TGI: 10.2 µM
[3]
  GI50: 6.23 µM
  TGI: 22.5 µM
[4]
  GI50: 0.624 µM
  TGI: 1.83 µM
[5]
  GI50: 1.56 µM
  TGI: 4.19 µM
[6]
  GI50: 0.836 µM
  TGI: 2.79 µM
[7]
  GI50: 1.06 µM
  TGI: > 100 µM
[8]
  GI50: 0.841 µM
  TGI: 2.17 µM
[9]
  GI50: 0.941 µM
  TGI: 2.27 µM
[10]
  GI50: 1.66 µM
  TGI: 8.15 µM
[11]
  GI50: 2.69 µM
  TGI: 7.04 µM
[12]
  GI50: 0.348 µM
  TGI: 1.42 µM
[13]
  GI50: 0.583 µM
  TGI: 1.97 µM
[14]
  GI50: 0.337 µM
  TGI: 1.54 µM
[15]
  GI50: 12.9 µM
  TGI: 27.7 µM
[16]
  GI50: 0.659 µM
  TGI: 2.69 µM
[17]
  GI50: 3.26 µM
  TGI: > 22.7 µM
[18]
  GI50: 1.03 µM
[19]
  GI50: 1.23 µM
  TGI: 4.56 µM
[20]
  GI50: 1.31 µM
  TGI: > 23.7 µM
[21]
  GI50: 3.37 µM
  TGI: 8.55 µM
[22]
  GI50: 1.14 µM
  TGI: 2.52 µM
[23]
  GI50: 1.49 µM
  TGI: 3.03 µM
[24]
  GI50: 0.272 µM
  TGI: 1.93 µM
[25]
  GI50: 1.81 µM
  TGI: 5.31 µM
[26]
  GI50: 1.57 µM
  TGI: 5.49 µM
[27]
  GI50: 0.548 µM
  TGI: 3.45 µM
[28]
  GI50: 2.31 µM
  TGI: 9.9 µM
[29]
  GI50: 1.74 µM
  TGI: 4.58 µM
[30]
  GI50: 2.75 µM
  TGI: 11.1 µM
[31]
  GI50: 0.444 µM
  TGI: 1.8 µM
[32]
  GI50: 1.85 µM
  TGI: 4.68 µM
[33]
  GI50: 0.422 µM
  TGI: 1.43 µM
[34]
  GI50: 1.27 µM
  TGI: 5.43 µM
[35]
  GI50: 2.13 µM
  TGI: 4.84 µM
[36]
  GI50: 1.76 µM
  TGI: 4.9 µM
[37]
  GI50: 2.29 µM
  TGI: 7.86 µM
[38]
  GI50: 0.558 µM
  TGI: 2.53 µM
[39]
  GI50: 0.481 µM
  TGI: 1.18 µM
[40]
  GI50: 2.01 µM
  TGI: 5.01 µM
[41]
  GI50: 2.3 µM
  TGI: 8.16 µM
[42]
  GI50: 1.38 µM
  TGI: 2.8 µM
[43]
  GI50: 2.16 µM
  TGI: 6.28 µM
[44]
  GI50: 1.73 µM
  TGI: 3.6 µM
[45]
  GI50: 2.26 µM
  TGI: 6.37 µM
[46]
  GI50: 9.95 µM
  TGI: 22.5 µM
[47]
  GI50: 1.71 µM
  TGI: 4.02 µM
[48]
  GI50: 6.98 µM
  TGI: 20.2 µM
[49]
  GI50: 3.69 µM
  TGI: 12.7 µM
[50]
  GI50: 0.566 µM
  TGI: 2.04 µM
[51]
  GI50: 1.44 µM
  TGI: 3.17 µM
[52]
  GI50: 1.81 µM
  TGI: 5.21 µM
[53]
  GI50: 0.909 µM
  TGI: 2.49 µM
[54]
  GI50: 1.25 µM
  TGI: 2.69 µM
[55]
  GI50: 0.622 µM
  TGI: 2.03 µM

## Fc1c(F)c(F)c2c(c1F)CSc1nc3ccccc3n1-2
[1]
  TGI: > 100 µM
[2]
  TGI: > 100 µM
[3]
  TGI: > 100 µM
[4]
  TGI: > 100 µM
[6]
  TGI: > 100 µM
[7]
  TGI: > 100 µM
[8]
  TGI: > 100 µM
[9]
  TGI: > 100 µM
[10]
  TGI: > 100 µM
[11]
  TGI: > 100 µM
[12]
  TGI: > 100 µM
[13]
  TGI: > 100 µM
[14]
  TGI: > 100 µM
[15]
  TGI: > 100 µM
[16]
  TGI: > 100 µM
[17]
  TGI: > 100 µM
[18]
  TGI: > 100 µM
[19]
  TGI: > 100 µM
[20]
  TGI: > 100 µM
[21]
  TGI: > 100 µM
[22]
  TGI: > 100 µM
[23]
  TGI: > 100 µM
[24]
  TGI: > 100 µM
[56]
  TGI: > 100 µM
[25]
  TGI: > 100 µM
[26]
  TGI: > 100 µM
[27]
  TGI: > 100 µM
[28]
  TGI: > 100 µM
[29]
  TGI: > 100 µM
[30]
  TGI: > 100 µM
[31]
  TGI: > 100 µM
[32]
  TGI: > 100 µM
[33]
  TGI: > 100 µM
[34]
  TGI: > 100 µM
[35]
  TGI: > 100 µM
[36]
  TGI: > 100 µM
[37]
  TGI: > 100 µM
[38]
  TGI: > 100 µM
[39]
  TGI: > 100 µM
[40]
  TGI: > 100 µM
[41]
  TGI: > 100 µM
[42]
  TGI: > 100 µM
[43]
  TGI: > 100 µM
[44]
  TGI: > 100 µM
[45]
  TGI: > 100 µM
[46]
  TGI: > 100 µM
[47]
  TGI: > 100 µM
[48]
  TGI: > 100 µM
[49]
  TGI: > 100 µM
[57]
  TGI: > 100 µM
[50]
  TGI: > 100 µM
[58]
  TGI: > 100 µM
[51]
  TGI: > 100 µM
[52]
  TGI: > 100 µM
[53]
  TGI: > 100 µM
[54]
  TGI: > 100 µM

## COc1ccc(-c2nnc(COc3ccc(Cl)cc3Cl)o2)cc1OC
[1]
  GI50: 1.8 µM
  TGI: 3.32 µM
[2]
  GI50: 2.78 µM
  TGI: 7.22 µM
[5]
  GI50: 16.9 µM
  TGI: 76.5 µM
[10]
  GI50: 4.39 µM
  TGI: > 100 µM
[11]
  GI50: > 100 µM
  TGI: > 100 µM
[13]
  GI50: > 100 µM
  TGI: > 100 µM
[14]
  GI50: > 100 µM
  TGI: > 100 µM
[15]
  GI50: 2.37 µM
  TGI: 7.9 µM
[16]
  GI50: 2.16 µM
  TGI: 4.91 µM
[17]
  GI50: 3.73 µM
  TGI: 96.2 µM
[19]
  GI50: 4.22 µM
  TGI: > 100 µM
[20]
  GI50: > 100 µM
  TGI: > 100 µM
[21]
  GI50: > 100 µM
  TGI: > 100 µM
[22]
  GI50: 3.16 µM
  TGI: > 100 µM
[56]
  GI50: 5.45 µM
  TGI: > 100 µM
[27]
  GI50: 8.3 µM
  TGI: > 100 µM
[28]
  GI50: 3.42 µM
  TGI: 30.3 µM
[29]
  GI50: 6.18 µM
  TGI: > 100 µM
[31]
  GI50: 3.28 µM
  TGI: 18.3 µM
[32]
  GI50: 3.44 µM
  TGI: > 100 µM
[35]
  GI50: 3.53 µM
  TGI: > 100 µM
[36]
  GI50: 4.02 µM
  TGI: > 100 µM
[37]
  GI50: 6.4 µM
  TGI: > 100 µM
[39]
  GI50: 2.14 µM
  TGI: 4.59 µM
[40]
  GI50: 5.95 µM
  TGI: 96.7 µM
[41]
  GI50: 13.5 µM
  TGI: 70.6 µM
[42]
  GI50: 5.52 µM
  TGI: 41.1 µM
[43]
  GI50: 7.79 µM
  TGI: 37.5 µM
[45]
  GI50: 3.27 µM
  TGI: > 100 µM
[48]
  GI50: 6.69 µM
  TGI: > 100 µM
[49]
  GI50: 1.61 µM
  TGI: 3.36 µM
[51]
  GI50: 3.15 µM
  TGI: 6.61 µM
[52]
  GI50: 4.36 µM
  TGI: 17.6 µM
[54]
  GI50: 3.35 µM
  TGI: > 100 µM
